The values that follow are results of earlier work, collected in patent US20050163759A1, “Compositions and methods for ex vivo preservation of blood vessels for vascular grafts using inhibitors of type I and/or type II phosphodiesterases” (priority 2003, published 2005).

Each structure is given as a SMILES string.

For the series, the system named is endothelial cells. The following applies: stated as known; no experiment described.

On to `CCCC(=O)Nc1ncnc2c1ncn2[C@@H]1O[C@@H]2COP(=O)(O)O[C@H]2[C@H]1OC(=O)CCC` [db cAMP, dibutyryl adenosine 3′,5′-cyclic monophosphate], for which the “db cAMP concentrations that become toxic to endothelial cells” value was “higher than 4 mM”.
